Laboratory results: publication PMC10825133, “Repurposing proteasome inhibitors for improved treatment of triple-negative breast cancer” (Cell Death Discovery, 2024)
Like-named read-outs stand apart in the source and are kept apart here.

Columns and labels:
Test in all cases: Resazurin-based cell viability assay, monotherapy drug screen
Parameters in all cases: species or system human; AUC: scale not given here
[1] = tested on: MDA-MB-436 cells; conditions: MDA-MB-436; for AUC: area under the dose response curve, 24 h; for GRmax: drug efficacy at highest tested dose (<0 cytotoxic, 0 cytostatic, >0 partial growth inhibition)
Method in brief: (§1)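 Cells were seeded at the highest density (tested 1000-16000 cells/well) giving linear growth between days 1 and 3, keeping them in exponential phase over the ~52 h experiment. Viability was read after 4 h at 37 °C with 0.2 mg/ml resazurin added at 10% of medium volume; ex 560/em 615 nm.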

[2] = tested on: MDA-MB-468 cells; conditions: MDA-MB-468; for AUC: area under the dose response curve, 24 h
Method in brief: as §1

[3] = tested on: MDA-MB-453 cells; conditions: MDA-MB-453; for AUC: area under the dose response curve, 24 h
Method in brief: as §1

[4] = tested on: HCC70 cells; conditions: HCC70; for AUC: area under the dose response curve, 24 h; for GRmax: drug efficacy at highest tested dose (<0 cytotoxic, 0 cytostatic, >0 partial growth inhibition)
Method in brief: as §1

[5] = tested on: HCC1806 cells; conditions: HCC1806; for AUC: area under the dose response curve, 24 h; for GRmax: drug efficacy at highest tested dose (<0 cytotoxic, 0 cytostatic, >0 partial growth inhibition)
Method in brief: as §1

[6] = tested on: HCC38 cells; conditions: HCC38; for AUC: area under the dose response curve, 24 h; for GRmax: drug efficacy at highest tested dose (<0 cytotoxic, 0 cytostatic, >0 partial growth inhibition)
Method in brief: as §1

[7] = tested on: BT-549 cells; conditions: BT-549; for AUC: area under the dose response curve, 24 h; for GRmax: drug efficacy at highest tested dose (<0 cytotoxic, 0 cytostatic, >0 partial growth inhibition)
Method in brief: as §1

[8] = tested on: MCF-7 cells; conditions: MCF-7; for AUC: area under the dose response curve, 24 h; for GRmax: drug efficacy at highest tested dose (<0 cytotoxic, 0 cytostatic, >0 partial growth inhibition)
Method in brief: as §1

[9] = tested on: MCF-10A cells; conditions: for AUC: area under the dose response curve, 24 h
Method in brief: as §1

[10] = Homo sapiens, 24 h drug treatment, read-out: IC50
[11] = Homo sapiens, growth rate inhibition concentration at GR(c) = 0.5, 24 h, read-out: GR50 (the source's name)
[12] = Homo sapiens, MCF7, 24 h drug treatment, read-out: IC50
[13] = Homo sapiens, MCF7, growth rate inhibition concentration at GR(c) = 0.5, 24 h, read-out: GR50 (the source's name)
[14] = growth rate inhibition concentration at GR(c) = 0.5, 24 h, read-out: GR50 (the source's name)
[15] = 24 h drug treatment, read-out: IC50
[16] = drug efficacy at highest tested dose (<0 cytotoxic, 0 cytostatic, >0 partial growth inhibition)

SMILES: COc1cccc2c1C(=O)c1c(O)c3c(c(O)c1C2=O)C[C@@](O)(C(=O)CO)C[C@@H]3O[C@H]1C[C@H](N)[C@H](O)[C@H](C)O1 [Doxorubicin]
- IC50 [1, 10]: 9700 nM
- IC50 [1, 11]: 3400 nM
- AUC [1]: 0.85
- GRmax [1]: 0.26
- IC50 [2, 10]: 3000 nM
- IC50 [2, 11]: 1500 nM
- AUC [2]: 0.84
- IC50 [3, 10]: 8100 nM
- IC50 [3, 11]: 4600 nM
- AUC [3]: 0.88
- AUC [4]: 0.88
- GRmax [4]: −0.35
- IC50 [4, 10]: 3300 nM
- IC50 [4, 11]: 1800 nM
- AUC [5]: 0.87
- GRmax [5]: 0.54
- IC50 [5, 11]: 6000 nM
- AUC [6]: 0.83
- GRmax [6]: 0.01
- IC50 [6, 10]: 2900 nM
- IC50 [6, 11]: 770 nM
- AUC [7]: 0.89
- GRmax [7]: 0.36
- IC50 [7, 10]: 7600 nM
- IC50 [7, 11]: 5600 nM
- IC50 [8, 12]: 1800 nM
- IC50 [8, 13]: 5700 nM
- AUC [8]: 0.93
- GRmax [8]: 0.44
- IC50 [9, 10]: 990 nM
- IC50 [9, 11]: 980 nM
- AUC [9]: 0.72

SMILES: COc1cccc2c1C(=O)c1c(O)c3c(c(O)c1C2=O)C[C@@](O)(C(=O)CO)C[C@@H]3O[C@H]1C[C@H](N)[C@@H](O)[C@H](C)O1 [Epirubicin]
- IC50 [1, 11]: 3600 nM
- AUC [1]: 0.84
- GRmax [1]: 0.26
- IC50 [2, 10]: 2200 nM
- IC50 [2, 11]: 960 nM
- AUC [2]: 0.80
- IC50 [3, 10]: 5300 nM
- IC50 [3, 11]: 3200 nM
- AUC [3]: 0.90
- AUC [4]: 0.83
- GRmax [4]: −0.49
- IC50 [4, 10]: 1600 nM
- IC50 [4, 11]: 1000 nM
- AUC [5]: 0.86
- GRmax [5]: 0.45
- IC50 [5, 11]: 6200 nM
- AUC [6]: 0.81
- GRmax [6]: −0.03
- IC50 [6, 10]: 2300 nM
- IC50 [6, 11]: 690 nM
- AUC [7]: 0.88
- GRmax [7]: 0.34
- IC50 [7, 10]: 4600 nM
- IC50 [7, 11]: 4300 nM
- IC50 [8, 12]: 1500 nM
- IC50 [8, 13]: 1100 nM
- AUC [8]: 0.89
- GRmax [8]: 0.42
- IC50 [9, 10]: 690 nM
- IC50 [9, 11]: 690 nM
- AUC [9]: 0.69

SMILES: CC[C@H](C)[C@H](NC(=O)[C@H]([C@@H](C)CC)N(C)C(C)=O)C(=O)N[C@H](C(=O)N[C@@H](CC(C)C)C(=O)[C@@]1(C)CO1)[C@@H](C)O [Epoxomicin]
- AUC [1]: 0.77
- GRmax [1]: 0.37
- IC50 [1, 14]: 320 nM
- IC50 [2, 15]: 110 nM
- AUC [2]: 0.65
- GRmax [2, 16]: 0.01
- IC50 [2, 14]: 51 nM
- AUC [3]: 0.70
- GRmax [3, 16]: 0.32
- IC50 [3, 14]: 15 nM
- IC50 [4, 15]: 980 nM
- AUC [4]: 0.72
- GRmax [4]: −0.52
- IC50 [4, 14]: 140 nM
- IC50 [5, 15]: 470 nM
- AUC [5]: 0.73
- GRmax [5]: 0.34
- IC50 [5, 14]: 290 nM
- IC50 [6, 15]: 54 nM
- AUC [6]: 0.47
- GRmax [6]: −0.74
- IC50 [6, 14]: 44 nM
- AUC [7]: 0.73
- GRmax [7]: 0.38
- IC50 [7, 14]: 130 nM
- IC50 [8, 15]: 1200 nM
- AUC [8]: 0.74
- GRmax [8]: 0.42
- IC50 [8, 14]: 75 nM
- IC50 [9, 15]: 88 nM
- AUC [9]: 0.58
- GRmax [9, 16]: −0.05
- IC50 [9, 14]: 95 nM
